Laboratory results: patent US20240197695A1, “COMPOUND FOR PREVENTION OR TREATMENT OF KIDNEY DISEASE” (ONCOCROSS CO.,LTD, priority 2021, published 2024)

Experiments:
Type in all cases: in vivo, mice (C57BL/6)
[1] = Drinking water intake of mice in diabetic nephrosis model; set-up: unit not given here
Experimental: (§1) STZ (Sigma-aldrich, S0130, 40 mg/kg b.w., in 0.1 M citrate buffer pH 4.5) was intraperitoneally administered to 9-week-old male mice (C57BL/6) once/1 day for 5 days to perform a first disease induction. After 7 weeks of the first induction, a second induction was performed using the same method as the first induction. For 5 days of an STZ administration period for the first induction, 10% sucrose was administered as drinking water. In addition, after 14 days of the second administration, blood glucose levels were confirmed to confirm the induction rate, and the induced animals were separated into groups. Experimental substances (R)-4-{(R)-1-[7-(3,4,5-trimethoxy-phenyl)-[1,6] naphthyridin-5-yloxy]-ethyl}pyrrolidin-2-one (BI-1002494) and cromolyn (OC-101) were administered orally into the stomach at 10 mL/kg using an administration syringe (sonde) before 16:00 daily for 12 weeks at a frequency of 7 days/week at doses shown in Table 1 below, and dexamethasone was orally administered as a positive control substance.

[2] = tested on: diabetic nephrosis animal models; assay: Blood insulin (Mouse Insulin ELISA KIT) and HOMA-IR; conditions: for HOMA-IR, Mean / Insulin, Mean: after observation period, fasted
Experimental: as §1
After the observation period for mice of each group in Example 1 was terminated, all surviving animals were fasted in the same manner as when measuring blood glucose levels, and then anesthetized by inhaling isoflurane, and blood was collected from the abdominal vena cava through laparotomy. After the blood collection was completed, the veins and arteries were cut under anesthesia and exsanguinated. The collected blood was left at room temperature for 30 minutes or more and then centrifuged at 3,000 rpm for 20 minutes. Thereafter, glucose, Blood urea nitrogen (BUN), and creatinine were analyzed using an automated blood biochemistry analyzer (Hitachi 3100, Hitachi Co. Ltd., Japan). Indoxyl sulfate (a substance that was mainly produced in the intestines to cause renal injury, and a substance that caused end-stage renal failure by advancing renal function damage in patients with renal failure during hemodialysis) was analyzed using LC MS/MS. In addition, blood insulin was analyzed according to a method represented by a commercial Mouse Insulin ELISA KIT (#AKRIN-011T, Sibayagi Co. Ltd., Japan).

[3] = tested on: diabetic nephrosis animal models; assay: Histopathological change (H&E) in liver, kidney, pancreas; conditions: for Kidney: Medullar apoptosis / Kidney: Medullar mineralization / Kidney: NHL / Kidney: bowman's capsule hyperplasia / Kidney: pappillary mineralization / Liver: Apoptosis / Liver: Cytoplasmic glycogen / Liver: Eosinophlic focus of cellular alteration / Liver: Mononuclear cell infiltrate / Liver: NHL / Pancrease: Apoptosis / Pancrease: NHL / Pancrease: islet degeneration / Pancrease: islet hypertrophy / Pancrease: islet, mononuclear cell infillitrate: count in group of 10 animals
Experimental: as §1
At the end of the observation period, the mice in each group of Example 1 were confirmed to be dead, and the liver, kidney, and pancreas were extracted and fixed with 10% neutral buffered formalin (NBF) in at least 20 times the tissue volume. The fixed tissue was sectioned to a thickness of approximately 4 mm and then produced into a paraffin block through general tissue processing and embedding processes. Thereafter, the tissue was sectioned to a thickness of 4 μm using a rotary microtome, and then H&E staining was performed, and histopathological changes were observed.

[4] = administered group (12.5, 25, 50 mg/kg)

Structure (SMILES): COc1cc(-c2cc3ncccc3c(O[C@H](C)[C@H]3CNC(=O)C3)n2)cc(OC)c1OC [BI-1002494, (R)-4-{(R)-1-[7-(3,4,5-trimethoxy-phenyl)-[1,6]naphthyridin-5-yloxy]-ethyl}pyrrolidin-2-one]
- Drinking water intake, Mean ([1]; 12.5 mg/kg/day oral, week 0): 7.80
- Drinking water intake, Mean ([1]; 12.5 mg/kg/day oral, week 1): 7.91
- Drinking water intake, Mean ([1]; 12.5 mg/kg/day oral, week 2): 7.41
- Drinking water intake, Mean ([1]; 12.5 mg/kg/day oral, week 3): 7.39
- Drinking water intake, Mean ([1]; 12.5 mg/kg/day oral, week 4): 7.38
- Drinking water intake, Mean ([1]; 12.5 mg/kg/day oral, week 5): 7.16
- Drinking water intake, Mean ([1]; 12.5 mg/kg/day oral, week 6): 7.34
- Drinking water intake, Mean ([1]; 12.5 mg/kg/day oral, week 7): 7.24
- Drinking water intake, Mean ([1]; 12.5 mg/kg/day oral, week 8): 6.99
- Drinking water intake, Mean ([1]; 12.5 mg/kg/day oral, week 9): 7.40
- Drinking water intake, Mean ([1]; 12.5 mg/kg/day oral, week 10): 7.46
- Drinking water intake, Mean ([1]; 25 mg/kg/day oral, week 0): 7.07
- Drinking water intake, Mean ([1]; 25 mg/kg/day oral, week 1): 7.62
- Drinking water intake, Mean ([1]; 25 mg/kg/day oral, week 2): 7.86
- Drinking water intake, Mean ([1]; 25 mg/kg/day oral, week 3): 7.38
- Drinking water intake, Mean ([1]; 25 mg/kg/day oral, week 4): 6.73
- Drinking water intake, Mean ([1]; 25 mg/kg/day oral, week 5): 7.19
- Drinking water intake, Mean ([1]; 25 mg/kg/day oral, week 6): 7.34
- Drinking water intake, Mean ([1]; 25 mg/kg/day oral, week 7): 7.69
- Drinking water intake, Mean ([1]; 25 mg/kg/day oral, week 8): 7.43
- Drinking water intake, Mean ([1]; 25 mg/kg/day oral, week 9): 7.54
- Drinking water intake, Mean ([1]; 25 mg/kg/day oral, week 10): 7.15
- Drinking water intake, Mean ([1]; 50 mg/kg/day oral, week 0): 7.27
- Drinking water intake, Mean ([1]; 50 mg/kg/day oral, week 1): 7.04
- Drinking water intake, Mean ([1]; 50 mg/kg/day oral, week 2): 6.07
- Drinking water intake, Mean ([1]; 50 mg/kg/day oral, week 3): 6.96
- Drinking water intake, Mean ([1]; 50 mg/kg/day oral, week 4): 7.13
- Drinking water intake, Mean ([1]; 50 mg/kg/day oral, week 5): 6.48
- Drinking water intake, Mean ([1]; 50 mg/kg/day oral, week 6): 6.93
- Drinking water intake, Mean ([1]; 50 mg/kg/day oral, week 7): 6.39
- Drinking water intake, Mean ([1]; 50 mg/kg/day oral, week 8): 6.91
- Drinking water intake, Mean ([1]; 50 mg/kg/day oral, week 9): 6.61
- Drinking water intake, Mean ([1]; 50 mg/kg/day oral, week 10): 6.22
- HOMA-IR, Mean ([2]; 12.5 mg/kg/day oral): 12.4
- Insulin, Mean ([2]; 12.5 mg/kg/day oral): 0.7 ng/mL
- HOMA-IR, Mean ([2]; 25 mg/kg/day oral): 8.7^#
- Insulin, Mean ([2]; 25 mg/kg/day oral): 0.5^# ng/ml
- HOMA-IR, Mean ([2]; 50 mg/kg/day oral): 6.9^#
- Insulin, Mean ([2]; 50 mg/kg/day oral): 0.5 ng/mL
- HOMA-IR compared with that of the disease control group ([2]; 25 and 50 mg/kg administered groups): statistically significantly reduced
- Insulin resistance (HOMA-IR), summary ([2]; after induction of diabetic renal diseases): decreased in a dose-dependent manner
- Kidney: Medullar apoptosis ([3]; G4, 12.5 mg/kg oral): 3
- Kidney: Medullar mineralization ([3]; G4, 12.5 mg/kg oral): 0
- Kidney: NHL ([3]; G4, 12.5 mg/kg oral): 7
- Kidney: bowman's capsule hyperplasia ([3]; G4, 12.5 mg/kg oral): 0
- Kidney: pappillary mineralization ([3]; G4, 12.5 mg/kg oral): 0
- Liver: Apoptosis ([3]; G4, 12.5 mg/kg oral): 2
- Liver: Cytoplasmic glycogen ([3]; G4, 12.5 mg/kg oral): 1
- Liver: Eosinophlic focus of cellular alteration ([3]; G4, 12.5 mg/kg oral): 0
- Liver: Mononuclear cell infiltrate ([3]; G4, 12.5 mg/kg oral): 1
- Liver: NHL ([3]; G4, 12.5 mg/kg oral): 7
- Pancrease: Apoptosis ([3]; G4, 12.5 mg/kg oral): 1
- Pancrease: NHL ([3]; G4, 12.5 mg/kg oral): 5
- Pancrease: islet degeneration ([3]; G4, 12.5 mg/kg oral): 2
- Pancrease: islet hypertrophy ([3]; G4, 12.5 mg/kg oral): 1
- Pancrease: islet, mononuclear cell infillitrate ([3]; G4, 12.5 mg/kg oral): 1
- Kidney: Medullar apoptosis ([3]; G5, 25 mg/kg oral): 2
- Kidney: Medullar mineralization ([3]; G5, 25 mg/kg oral): 1
- Kidney: NHL ([3]; G5, 25 mg/kg oral): 7
- Kidney: bowman's capsule hyperplasia ([3]; G5, 25 mg/kg oral): 0
- Kidney: pappillary mineralization ([3]; G5, 25 mg/kg oral): 0
- Liver: Apoptosis ([3]; G5, 25 mg/kg oral): 3
- Liver: Cytoplasmic glycogen ([3]; G5, 25 mg/kg oral): 0
- Liver: Eosinophlic focus of cellular alteration ([3]; G5, 25 mg/kg oral): 0
- Liver: Mononuclear cell infiltrate ([3]; G5, 25 mg/kg oral): 2
- Liver: NHL ([3]; G5, 25 mg/kg oral): 7
- Pancrease: Apoptosis ([3]; G5, 25 mg/kg oral): 0
- Pancrease: NHL ([3]; G5, 25 mg/kg oral): 8
- Pancrease: islet degeneration ([3]; G5, 25 mg/kg oral): 1
- Pancrease: islet hypertrophy ([3]; G5, 25 mg/kg oral): 1
- Pancrease: islet, mononuclear cell infillitrate ([3]; G5, 25 mg/kg oral): 0
- Kidney: Medullar apoptosis ([3]; G6/G7, 50 mg/kg oral): 1
- Kidney: Medullar mineralization ([3]; G6/G7, 50 mg/kg oral): 2
- Kidney: NHL ([3]; G6/G7, 50 mg/kg oral): 7
- Kidney: bowman's capsule hyperplasia ([3]; G6/G7, 50 mg/kg oral): 0
- Kidney: pappillary mineralization ([3]; G6/G7, 50 mg/kg oral): 0
- Liver: Apoptosis ([3]; G6/G7, 50 mg/kg oral): 2
- Liver: Cytoplasmic glycogen ([3]; G6/G7, 50 mg/kg oral): 0
- Liver: Eosinophlic focus of cellular alteration ([3]; G6/G7, 50 mg/kg oral): 0
- Liver: Mononuclear cell infiltrate ([3]; G6/G7, 50 mg/kg oral): 1
- Liver: NHL ([3]; G6/G7, 50 mg/kg oral): 8
- Pancrease: Apoptosis ([3]; G6/G7, 50 mg/kg oral): 0
- Pancrease: NHL ([3]; G6/G7, 50 mg/kg oral): 7
- Pancrease: islet degeneration ([3]; G6/G7, 50 mg/kg oral): 1
- Pancrease: islet hypertrophy ([3]; G6/G7, 50 mg/kg oral): 2
- Pancrease: islet, mononuclear cell infillitrate ([3]; G6/G7, 50 mg/kg oral): 0
- Cytoplasmic glycogen in the liver [3, 4]: reduced in the liver
- Medullar apoptosis in the kidney [3, 4]: reduced in the kidney in a dose-dependent manner
